Source: patent US20080305085A1, “Compositions And Methods For Stem Cell Expansion” (priority 2004, published 2008)

Columns and labels:
Sca1+c-kit+lin− cells = test: In vivo PTH treatment, Sca1+c-kit+lin− cells in bone marrow by flow cytometry; parameters: species or system mouse; details: for magnitude of Sca1+c-kit+lin− increase induced by PTH, absolute number / magnitude of Sca1+c-kit+lin− increase induced by PTH, proportion: four weeks of PTH
Procedure: FIG. 6 is a graph showing that OPN deficiency permits increased primitive hematopoietic cell compartment expansion after niche activation by parathyroid hormone (PTH): OPN^+/+ and OPN^−/− mice were treated with PTH by daily injection for 4 weeks. The bone marrow was analyzed by flow cytometry.
Parathyroid hormone is capable of activating niche osteoblasts and expanding the number of stem cells in vitro and in vivo in a Notch mediated manner. […] Stimulation with PTH increases OPN production leading to the hypothesis that the degree of stem cell expansion possible by PTH niche activation may be restricted by OPN. Using the OPN null or wild type mouse, the number of primitive cells was assessed following four weeks of PTH stimulation. A difference in the number of Sca1^+c-kit^+lin^− was noted between the OPN null and wild type mouse prior to PTH (FIG. 6). With PTH treatment, there was an increase in the Sca1^+c-kit^+lin^− cells in each genotypic background.
6-8 week old wild-type or null male mice were injected with rat PTH (1-34) (Bachem, Torrance, Calif.) (80 μg/Kg of body weight) or vehicle alone intraperitoneally 5×/week for 4 weeks (n=4-6/group). Animals were sacrificed and bone marrow cell isolated and analyzed as above.
Flow cytometry was used to quantify the hematopoietic cells at different stages in the peripheral blood and the bone marrow of the transplanted animals. Bone marrow nucleated cells were labeled with the leukocyte antibodies Ly5.1-PE and Ly5.2-biotin (Pharmingen, San Diego, Calif.), lineage antibodies (CD3-PerCP, CD4-PE, B220-PE, Ter119-PE, (Pharmingen, San Diego, Calif.), CD8-Tri, Gr-1-Tri, Mac1-PE (Caltag)), and stem cell markers (Sca1-Tri and PE, c-kit-Tri (Caltag, Burlingame, Calif.)). To quantify the enriched stem cell phenotype (Sca1^+lin^−) in primary animals and in transplanted animals bone marrow cells were stained with biotinylated lineage antibodies (CD3, Ter119 (Pharmingen, San Diego, Calif.), CD4, CD8, B220, IgM, Gr-1 and Mac1 (Caltag, Burlingame, Calif.)), c-kit-APC (Pharmingen, San Diego, Calif.) and Sca1-PE (Caltag, Burlingame, Calif.). The cells were analyzed after labeling with the secondary antibody Streptavidin-PerCP (Becton Dickinson, Franklin Lakes, N.J.). For cell cycle analyses bone marrow cells were incubated with stem cell markers and the DNA dye Hoechst33342. The proportion of apoptotic cells were measured by staining with AnnexinV (Caltag, Burlingame, Calif.) and the DNA-dye 7-AAD (Sigma, St. Louis, Mo.).

[1] = system: Sca1+lin− bone marrow cells; test: Culture of Sca1+lin− bone marrow cells with or without soluble OPN for 7 days, cells counted; type: cell-based, mouse; details: Sca1+lin− cells of C57B1/6 mice, 7 days in SCF, Flt-3, TPO, IL-3, OPN 1 μg/ml, versus without OPN
Procedure: (§1) FIGS. 5A-5C are graphs showing that soluble OPN induces apoptosis of primitive hematopoietic cells. Sca1^+lin^− cells were isolated from the bone marrow of C57B1/6 mice and cultured in IMDM containing 10% fetal calf serum (FCS), stem cell factor (SCF), Flt-3, thrombopoietin (TPO) and IL-3 with or without OPN [1 μg/ml]. After 7 days the cells were counted and analyzed in functional hematopoietic assays.
(§2) Exogenous OPN was used to assess its potential role in regulating primitive cells directly rather than through the altered expression of other regulators within the niche. Initial experiments cultured Sca1^+lin^− bone marrow cells of C57B1/6 mice in medium containing stem cell factor (SCF), Flt-3, thrombopoietin (TPO), and IL-3 with and without OPN for 7 days. The cells were subsequently counted and analyzed in functional in vitro progenitor and stem cell assays. Addition of soluble OPN led to a lower total cell number with an unperturbed absolute number of CFCs representing hematopoietic progenitor cell activity (n=5) (FIG. 5A).
(§3) Mouse bone marrow was obtained from 8-12 week old 129/C57BL/6 OPN^+/+ and 129/C57BL/6 OPN^−/− mice, sacrificed with CO2. Bone marrow cell and spleen cell suspensions were flushed from femurs and tibias or take from spleen, filtered through 100 μm-mesh nylon cloth (Sefar America Inc., Kansas City, Mo.), and stored on ice until use. […]

[2] = system: Sca1+lin− bone marrow cells; test: Colony-forming cell (CFC) assay after 7 day culture with OPN; type: cell-based, mouse; details: after 7 days culture with OPN 1 μg/ml versus without OPN, n=5
Procedure: as §1, §2, §3

[3] = system: Sca1+lin− bone marrow cells; test: Limiting dilution LTC-IC assay after 7 day culture with OPN; type: cell-based, mouse; details: after 7 days culture with OPN 1 μg/ml; without OPN 35.9±5.14; P=0.002, n=5
Procedure: as §1
as §2, with “Addition of soluble OPN led to a lower total cell number with an unperturbed absolute number of CFCs representing hematopoietic progenitor cell activity (n=5) (FIG. 5A).” left out
To quantify the stem cells in the bone marrow and spleen cell suspension, the CAFC assay^36 was adapted with minor modifications as described in our previous publication^37. To measure long term culture-initiating cells (LTC-IC) the semisolid, cytokine containing methylcellulose medium for CFC was overlaid into the wells at week 5 and the colonies were counted at day ten. […]

[4] = system: lin− primitive hematopoietic cells; test: Apoptosis by AnnexinV / 7-AAD flow cytometry of cells cultured with OPN; type: cell-based, mouse; details: cultured with OPN 1 μg/ml versus without OPN
Procedure: as §1
The fraction of apoptotic cells was next analyzed by staining with lineage markers, 7-AAD and AnnexinV. […] OPN exerted a pro-apoptotic effect on primitive cells potentially constraining the size of the stem cell pool.
Flow cytometry was used to quantify the hematopoietic cells at different stages in the peripheral blood and the bone marrow of the transplanted animals. […] To quantify the enriched stem cell phenotype (Sca1^+lin^−) in primary animals and in transplanted animals bone marrow cells were stained with biotinylated lineage antibodies (CD3, Ter119 (Pharmingen, San Diego, Calif.), CD4, CD8, B220, IgM, Gr-1 and Mac1 (Caltag, Burlingame, Calif.)), c-kit-APC (Pharmingen, San Diego, Calif.) and Sca1-PE (Caltag, Burlingame, Calif.). The cells were analyzed after labeling with the secondary antibody Streptavidin-PerCP (Becton Dickinson, Franklin Lakes, N.J.). […]

Jagged1 = Jagged1 expression by RT-PCR in wild-type bone marrow stroma exposed to OPN ex vivo; type: cell-based, mouse; details: OPN 1 ug/ml, four hours ex vivo
Excerpt: FIGS. 4A-4F are graphs showing that OPN^−/− bone marrow has unaltered cell cycle profiles associated with increased stromal Jagged1 and Angiopoietin-1 expression and reduced primitive cell apoptosis. FIG. 4A is a graph showing that bone marrow Sca1^+ c-kit^+lin^− cells that show bright staining for Hoechst33342 are cells in the G2/M phase of the cell cycle (n=3 pairs). […] Data are the result of two independent experiments with four mice per group in each experiment. […] Data were normalized to an intrasample GAPDH standard and the results of the OPN^−/− versus OPN^+/+ cells were compared by ratio. […] Data are normalized against GAPDH expression measured by RT PCR. […] AnnexinV-positive/7-AAD-negative apoptotic Sca1^+c-kit^+lin^− cells are shown (n=4 pairs). […] Analyses were performed on the lin^− fraction twelve weeks after transplantation (n=4).
Stem cell expansion may occur without increased proliferation in the context of Notch1 activation where stem cell self renewal is favored over differentiation^23,24. Activation of Notch1 on primitive hematopoietic cells in vivo was previously shown to result in an increase in primitive cells, but reduced progenitor cells similar phenotype to that reported herein^23. […]
The expression of Jagged1, Angiopoietin1 and N-cadherin in bone marrow stroma cells was measured by RT-PCR. […]

Substance | Sca1+c-kit+lin− cells after PTH treatment (Sca1+c-kit+lin− cells; OPN null and wild type mice, 80 μg/Kg i.p. 5×/week for 4 weeks) | magnitude of Sca1+c-kit+lin− increase induced by PTH, absolute number (Sca1+c-kit+lin− cells; OPN null mice) | magnitude of Sca1+c-kit+lin− increase induced by PTH, proportion (Sca1+c-kit+lin− cells; OPN null mice) [%] | magnitude of Sca1+c-kit+lin− increase induced by PTH, absolute number (Sca1+c-kit+lin− cells; wild type mice) | magnitude of Sca1+c-kit+lin− increase induced by PTH, proportion (Sca1+c-kit+lin− cells; wild type mice) [%] | total cell number [1] | absolute number of CFCs [2] | absolute number of LTC-ICs [3] [LTC-ICs/well] | percentage of AnnexinV+7-AAD− cells in the lin− cell population [4] | Jagged1 expression (RT-PCR, normalized to GAPDH) (Jagged1)
PTH: rat PTH (1-34) (Bachem), parathyroid hormone used to activate niche osteoblasts (AVSEIQLMHNLGKHLASVERMQWLRKKLQDVHNF; Parathyroid hormone; UniProt P04089 32-65, looked up, fragment) | increase | 5.94×10^4 stem cells per femur pair | 10.0 | 3.82×10^4 stem cells per femur pair | 7.5 |  |  |  |  | 
OPN: Osteopontin, a secreted, highly acidic glycoprotein; OPN protein was obtained from R&D Systems |  |  |  |  |  | lower | unperturbed | 16.41±4.5 | higher percentage | statistically significantly reduced
